# Measured values taken from publication PMC9250534, “Synthesis and direct assay of large macrocycle diversities by combinatorial late-stage modification at picomole scale” (Nature Communications, 2022).
# Target: MDM2 (Homo sapiens, UniProt Q00987)
# Experiment: MDM2 binding screen of Libraries 3 and 4: displacement of fluorescent probe F-M8 at 750 nM macrocycle
# Details: Panel b, Library 3: 63 scaffolds combinatorially acylated with 15 carboxylic acids at 30 picomole scale; displacement of fluorescent peptide probe; macrocycle 750 nM
# Outline: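 Competition with nutlin-3a was run using the fluorescein conjugate. Library members came from scaffolds reacted 6 h at room temperature with carboxylic acids (20 equiv.), HBTU and DABCO in DMSO. Quenching was overnight in Tris-Cl pH 7.4 buffer with 0.01% Tween20.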
# Sequence of MDM2 (Q00987 whole entry): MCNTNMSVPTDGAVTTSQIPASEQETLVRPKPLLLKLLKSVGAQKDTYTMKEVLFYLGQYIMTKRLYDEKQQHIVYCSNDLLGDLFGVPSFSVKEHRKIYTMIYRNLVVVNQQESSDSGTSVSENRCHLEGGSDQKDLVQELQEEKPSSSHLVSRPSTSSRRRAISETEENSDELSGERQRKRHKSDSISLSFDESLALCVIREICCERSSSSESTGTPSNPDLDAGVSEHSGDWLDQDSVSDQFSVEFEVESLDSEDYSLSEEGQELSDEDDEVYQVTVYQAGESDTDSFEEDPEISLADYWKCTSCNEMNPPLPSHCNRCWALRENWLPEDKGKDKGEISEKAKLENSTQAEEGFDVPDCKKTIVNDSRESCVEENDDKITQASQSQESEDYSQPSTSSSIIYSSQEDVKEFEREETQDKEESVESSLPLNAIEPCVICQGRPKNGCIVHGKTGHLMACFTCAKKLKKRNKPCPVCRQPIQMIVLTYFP
row,SMILES,fraction of fluorescent probe displaced
1,O=C(/C=C/c1ccc(Cl)cc1)NCCN1CC(=O)N[C@@H](Cc2cccc3ccccc23)C(=O)NCCSSCCC(=O)N2CCC[C@@H](C2)C1=O [X-Nip-N-Aeg-1-NaI + Acid 108],0.021
2,O=C(/C=C/c1ccc(OCc2ccccc2)cc1)NCCN1CC(=O)N[C@@H](Cc2cccc3ccccc23)C(=O)NCCSSCCC(=O)N2CCC[C@@H](C2)C1=O [X-Nip-N-Aeg-1-NaI + Acid 110],-0.00533
3,O=C1CN(CCNC(=O)c2cccc(Oc3ccccc3)c2)C(=O)[C@H]2CCCN(C2)C(=O)CCSSCCNC(=O)[C@H](Cc2cccc3ccccc23)N1 [X-Nip-N-Aeg-1-NaI + Acid 111],0.035
4,O=C(/C=C/c1ccc2ccccc2c1)NCCN1CC(=O)N[C@@H](Cc2cccc3ccccc23)C(=O)NCCSSCCC(=O)N2CCC[C@@H](C2)C1=O [X-Nip-N-Aeg-1-NaI + Acid 112],0.015
5,O=C(CCS(=O)(=O)c1ccccc1)NCCN1CC(=O)N[C@@H](Cc2cccc3ccccc23)C(=O)NCCSSCCC(=O)N2CCC[C@@H](C2)C1=O [X-Nip-N-Aeg-1-NaI + Acid 114],0.008
6,O=C1CN(CCNC(=O)c2ccc(Cl)cc2)C(=O)[C@H]2CCCN(C2)C(=O)CCSSCCNC(=O)[C@H](Cc2ccc3ccccc3c2)N1 [X-Nip-N-Aeg-2-Nal + Acid 25],0.00133
7,O=C1CN(CCNC(=O)c2ccc3ccccc3c2)C(=O)[C@H]2CCCN(C2)C(=O)CCSSCCNC(=O)[C@H](Cc2ccc3ccccc3c2)N1 [X-Nip-N-Aeg-2-Nal + Acid 107],0.011
8,O=C(/C=C/c1ccc(OCc2ccccc2)cc1)NCCN1CC(=O)N[C@@H](Cc2ccc3ccccc3c2)C(=O)NCCSSCCC(=O)N2CCC[C@@H](C2)C1=O [X-Nip-N-Aeg-2-Nal + Acid 110],0.035
9,O=C1CN(CCNC(=O)c2cccc(Oc3ccccc3)c2)C(=O)[C@H]2CCCN(C2)C(=O)CCSSCCNC(=O)[C@H](Cc2ccc3ccccc3c2)N1 [X-Nip-N-Aeg-2-Nal + Acid 111],0.00133
10,CC(Oc1cccc(Cl)c1)C(=O)NCCN1CC(=O)N[C@@H](Cc2ccc3ccccc3c2)C(=O)NCCSSCCC(=O)N2CCC[C@@H](C2)C1=O (stereo partly drawn) [X-Nip-N-Aeg-2-Nal + Acid 113],0.00133
11,O=C(CCS(=O)(=O)c1ccccc1)NCCN1CC(=O)N[C@@H](Cc2ccc3ccccc3c2)C(=O)NCCSSCCC(=O)N2CCC[C@@H](C2)C1=O [X-Nip-N-Aeg-2-Nal + Acid 114],0.015
12,O=C1CN(CCNC(=O)c2cccc(Oc3ccccc3)c2)C(=O)[C@H]2CCCN(C2)C(=O)CCSSCCNC(=O)[C@H](Cc2c[nH]c3cc(Cl)ccc23)N1 [X-Nip-N-Aeg-Cl-Trp + Acid 111],-0.00533
13,O=C(/C=C/c1ccc2ccccc2c1)NCCN1CC(=O)N[C@@H](Cc2c[nH]c3cc(Cl)ccc23)C(=O)NCCSSCCC(=O)N2CCC[C@@H](C2)C1=O [X-Nip-N-Aeg-Cl-Trp + Acid 112],0.00133
14,CC(Oc1cccc(Cl)c1)C(=O)NCCN1CC(=O)N[C@@H](Cc2c[nH]c3cc(Cl)ccc23)C(=O)NCCSSCCC(=O)N2CCC[C@@H](C2)C1=O (stereo partly drawn) [X-Nip-N-Aeg-Cl-Trp + Acid 113],-0.019
15,O=C(/C=C/c1ccc2ccccc2c1)NCCN1CC(=O)N[C@H](Cc2c[nH]c3ccccc23)C(=O)NCCSSCCC(=O)N2CCC[C@@H](C2)C1=O [X-Nip-N-Aeg-D-Trp + Acid 112],0.055
16,Cn1cc(C[C@@H]2NC(=O)CN(CCNC(=O)c3ccc(Cl)s3)C(=O)[C@H]3CCCN(C3)C(=O)CCSSCCNC2=O)c2ccccc21 [X-Nip-N-Aeg-Me-Trp + Acid 14],-0.012

# More lines, now with the values ahead:
row,fraction of fluorescent probe displaced,SMILES
1,0.011,Cn1cc(C[C@@H]2NC(=O)CN(CCNC(=O)c3ccc4ccccc4c3)C(=O)[C@H]3CCCN(C3)C(=O)CCSSCCNC2=O)c2ccccc21 [X-Nip-N-Aeg-Me-Trp + Acid 107]
2,0.00133,Cn1cc(C[C@@H]2NC(=O)CN(CCNC(=O)/C=C/c3ccc(OCc4ccccc4)cc3)C(=O)[C@H]3CCCN(C3)C(=O)CCSSCCNC2=O)c2ccccc21 [X-Nip-N-Aeg-Me-Trp + Acid 110]
3,0.008,CC(Oc1cccc(Cl)c1)C(=O)NCCN1CC(=O)N[C@@H](Cc2cn(C)c3ccccc23)C(=O)NCCSSCCC(=O)N2CCC[C@@H](C2)C1=O (stereo partly drawn) [X-Nip-N-Aeg-Me-Trp + Acid 113]
4,0.00133,Cn1cc(C[C@@H]2NC(=O)CN(CCNC(=O)CCS(=O)(=O)c3ccccc3)C(=O)[C@H]3CCCN(C3)C(=O)CCSSCCNC2=O)c2ccccc21 [X-Nip-N-Aeg-Me-Trp + Acid 114]
5,0.00133,CN1C(=O)CN(CCNC(=O)c2ccc(Cl)s2)C(=O)[C@H]2CCCN(C2)C(=O)CCSSCCNC(=O)[C@@H]1Cc1c[nH]c2ccccc12 [X-Nip-N-Aeg-NMe-Trp + Acid 14]
6,0.028,CN1C(=O)CN(CCNC(=O)/C=C/c2ccc(Cl)cc2)C(=O)[C@H]2CCCN(C2)C(=O)CCSSCCNC(=O)[C@@H]1Cc1c[nH]c2ccccc12 [X-Nip-N-Aeg-NMe-Trp + Acid 108]
7,-0.012,CN1C(=O)CN(CCNC(=O)c2cccc(Oc3ccccc3)c2)C(=O)[C@H]2CCCN(C2)C(=O)CCSSCCNC(=O)[C@@H]1Cc1c[nH]c2ccccc12 [X-Nip-N-Aeg-NMe-Trp + Acid 111]
8,-0.00533,CN1C(=O)CN(CCNC(=O)CCS(=O)(=O)c2ccccc2)C(=O)[C@H]2CCCN(C2)C(=O)CCSSCCNC(=O)[C@@H]1Cc1c[nH]c2ccccc12 [X-Nip-N-Aeg-NMe-Trp + Acid 114]
9,-0.00533,O=C1CN(CCNC(=O)c2ccc(Cl)s2)C(=O)[C@H]2CCCN(C2)C(=O)CCSSCCNC(=O)[C@H](Cc2c[nH]c3ccccc23)N1 [X-Nip-N-Aeg-Trp + Acid 14]
10,0.015,O=C1CN(CCNC(=O)c2cccc(Oc3ccccc3)c2)C(=O)[C@H]2CCCN(C2)C(=O)CCSSCCNC(=O)[C@H](Cc2c[nH]c3ccccc23)N1 [X-Nip-N-Aeg-Trp + Acid 111]
11,0.035,O=C(CCS(=O)(=O)c1ccccc1)NCCN1CC(=O)N[C@@H](Cc2c[nH]c3ccccc23)C(=O)NCCSSCCC(=O)N2CCC[C@@H](C2)C1=O [X-Nip-N-Aeg-Trp + Acid 114]
12,0.021,O=C1CN(CCNC(=O)C2COc3ccccc3O2)C(=O)[C@H]2CCCN(C2)C(=O)CCSSCCNC(=O)[C@H](Cc2c[nH]c3ccccc23)N1 (stereo partly drawn) [X-Nip-N-Aeg-Trp + Acid 115]

# Same assay, conditions: Panel c, Library 4: best nine scaffolds and 15 additional carboxylic acids; displacement of fluorescent probe
row,fraction of fluorescent probe displaced,SMILES
1,0.435,CCCOc1ccc(/C=C/C(=O)NC[C@@H]2NC(=O)[C@H]3CCCN(C3)C(=O)CCSSCCNC(=O)[C@H](Cc3c[nH]c4ccccc34)NC2=O)cc1 [X-Nip-Dap-Trp + Acid 118]
2,0.435,O=C(/C=C/c1ccc(Cl)c(Cl)c1)NC[C@@H]1NC(=O)[C@H]2CCCN(C2)C(=O)CCSSCCNC(=O)[C@H](Cc2c[nH]c3ccccc23)NC1=O [X-Nip-Dap-Trp + Acid 119]
3,0.468,O=C(/C=C/c1cccc(Cl)c1)NC[C@@H]1NC(=O)[C@H]2CCCN(C2)C(=O)CCSSCCNC(=O)[C@H](Cc2c[nH]c3ccccc23)NC1=O [X-Nip-Dap-Trp + Acid 121]
4,0.395,O=C(/C=C/c1cccc(C(F)(F)F)c1)NC[C@@H]1NC(=O)[C@H]2CCCN(C2)C(=O)CCSSCCNC(=O)[C@H](Cc2c[nH]c3ccccc23)NC1=O [X-Nip-Dap-Trp + Acid 122]
5,0.044,CC(=Cc1ccccc1)C(=O)NCC1NC(=O)C2CCCN(C2)C(=O)CCSSCCNC(=O)C(Cc2c[nH]c3ccccc23)NC1=O (stereo not drawn) [X-Nip-Dap-Trp + Acid 123]
6,0.313,CC(C)c1ccc(C=CC(=O)NCC2NC(=O)C3CCCN(C3)C(=O)CCSSCCNC(=O)C(Cc3c[nH]c4ccccc34)NC2=O)cc1 (stereo not drawn) [X-Nip-Dap-Trp + Acid 127]
7,0.036,O=C(NC[C@@H]1NC(=O)[C@H]2CCCN(C2)C(=O)CCSSCCNC(=O)[C@H](Cc2c[nH]c3ccccc23)NC1=O)c1cnc2ccccc2n1 [X-Nip-Dap-Trp + Acid 130]

# Target: T1, thrombin (Homo sapiens, UniProt P00734)
# T1 construct: consists of two polypeptide chains of 36 (light chain) and 259 amino acid
# Experiment: Determination of Kis of purified thrombin inhibitors (IC50, Cheng-Prusoff)
# Type: biochemical
# Details: read-out: Ki thrombin
# Method: Purified thrombin inhibitors (10 mM in DMSO) were diluted to 80 μM in 125 μL of Tris buffer (100 mM Tris-Cl, 150 mM NaCl, 10 mM MgCl2, 1 mM CaCl2) containing 0.1% w/v BSA, 0.01% v/v Triton-X100 and […]. The macrocycles were diluted two-fold in Tris buffer containing 0.1% w/v BSA, 0.01% v/v Triton-X100 and 1% DMSO in buffer. The thrombin activity was measured in 96-well plates (Greiner, 655101) and the residual activity calculated as described above in the assay used to measure activities of HPLC-separated fractions of screening hits.
# Supplementary Figure 7. Thrombin inhibitors M1 to M5. a, Chemical structures and analytical HPLC chromatograms obtained using a 0-100% MeCN/H2O gradient over 15 minutes. b, For all macrocycles, an 18 -point, two-fold serial dilution was performed in 50 µL volumes. Thrombin was added (50 µL, 2 nM final conc.), followed 10 minutes later by fluorogenic substrate Z -Gly-Gly-Arg-AMC (50 µL, 50 µM final conc.). The increase in fluorescence was measured over 30 minutes.
# Residual thrombin activity was determined by dividing the slope of fluorescenc e intensity over time for each well by the slope of control wells without macrocycle. Mean values and SDs are indicated for three independent thrombin inhibition measurements.
# (1 picture or pasted object on this page, not shown here)
row,Ki [µM],SMILES
1,380,"NC(=O)c1ccc(Cl)s1 [5-chlorothiophene-2-carboxamide, reference compound]"
